Drawing on PMC7148433 (Biochemical Journal, 2020), this text covers Kd for one compound.

For the experiment, the target named is T1, lipocalin-type prostaglandin D synthase (L-PGDS) (Homo sapiens, UniProt P41222).
T1 sequence (P41222 23-190): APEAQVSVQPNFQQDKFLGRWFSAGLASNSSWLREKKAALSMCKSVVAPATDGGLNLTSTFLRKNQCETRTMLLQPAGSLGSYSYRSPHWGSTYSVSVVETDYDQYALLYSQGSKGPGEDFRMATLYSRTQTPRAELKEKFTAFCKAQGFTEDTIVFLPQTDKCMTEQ
Briefly: tryptophan fluorescence quenching. Format: binding.

Structures are written as SMILES.

The term Kd denotes the free concentration of one partner at which half of the binding sites on the other are occupied at equilibrium, for simple one-to-one binding. Lower therefore signals a tighter complex. `C=CC1=C(C)C2=Cc3c(C=C)c(C)c4[n]3[Fe][n]3c(c(C)c(CCC(=O)O)c3=CC3=NC(=C4)C(C)=C3CCC(=O)O)=CC1=N2` [heme] came in with a Kd of 40 nM.
